We go through six compounds from patent publication US20040214270A1, “Isocitrate dehydrogenase, gene thereof, and use of the same in the treatment of obesity, hyperlipidemia, and fattly liver in lipid biosynthesis” (priority 2000, published 2004).

Molecules are shown by their SMILES. Entries after “also recorded” stand apart in the source; their conditions may differ.

One experiment has as its target isocitrate dehydrogenase (Mus musculus, UniProt O88844). The experiment in a line: Screening of inhibitors against isocitrate dehydrogenase (spectrophotometry, absorbance at 340 nm). The format is biochemical. The following applies: change in absorbance at 340 nm with time, 25° C. As for the experimental part:
In this connection, spectrophotometry is very useful. In more detail, first, a spectrophotometer is adjusted to zero absorbance at 340 nm using a mixture of a ten-fold concentrated reaction buffer plus 3rd distilled water. After a crystal cuvette containing the 10× buffer, a test sample and 3rd distilled water is installed in the spectrophotometer, isocitrate dehydrogenase is added to the cuvette and a measurement is made of the change in absorbance at 340 nm with time.
Because an absorbance decreases faster in the cuvette containing a greater concentration of a sample inhibitory against the activity of the enzyme, the analysis of the spectrophotometric data enables the screening of inhibitors of isocitrate dehydrogenase.
An assay buffer (50 mM MOPS, pH 7.2, 35.5 mM triethanolamine, pH 7.2, 2 mM NADP^+, 2 mM MgCl2, 5 mM isocitrate, rotenone 1 mg/ml) and test samples were all prepared at 10× concentration. Enzymatic reactions necessary for the selection were conducted in a final volume of 1 ml at 25° C. in crystal cuvette. For use, the concentrated test samples were diluted with 3rd distilled water. The assay buffer, enzyme inhibitors, and isocitrate dehydrogenase, which all at 10× concentration, were maintained at low temperature, i.e., in ice.
A spectrophotometer was first subjected to null adjustment at 340 nm using the 10× assay buffer and 3rd distilled water. 100 μl of the sample was added, along with 100 μl of the 10× assay buffer, in a crystal cuvette, and mixed with 600 μl of 3rd distilled water. After the completion of the null adjustment, the sample cuvette was installed in the spectrophotometer, followed by adding 200 μl of isocitrate dehydrogenase and mixing the solution with the aid of a pipette. Changes in absorbance at 340 nm were monitored with time. In principle, an absorbance decreases faster in the cuvette containing a greater concentration of a sample inhibitory against the activity of the enzyme. Based on this principle, the quantification of the spectrophotometric data enabled the screening of inhibitors of isocitrate dehydrogenase.

The test system of the next experiment is 3T3-L1 cells. The experiment can be described thus: Prevention of oil deposition in 3T3-L1 by isocitrate dehydrogenase inhibitor (Oil-Red-O). It is filed as cell-based, mouse. As to conditions: cells treated with inhibitor vs no isocitrate inhibitors, FIG. 9. The text has this:
After being treated with the isocitrate dehydrogenase inhibitors methyl isocitric acid and oxalomalic acid, 3T3-L1 cells, which remain undifferentiated, were examined for their differentiation to adipocytes. Effects of the isocitrate dehydrogenase inhibitors on fatty acid synthesis could be identified through the visualization using Oil-Red-O, a oil-specific dye.

The subject of another experiment is rats. The experiment in a line: Restrictive effect of isocitrate dehydrogenase inhibitor on obesity in rats. The format is in vivo, rat. As for the experimental part: 26 weeks after birth, rats were compared for cellular lipid deposition when they were treated with no isocitrate dehydrogenase inhibitors and methyl isocitric acid.
A container suitable for receiving a rat was placed on a scale which was then subjected to null adjustment, after which a rat was carefully put in the container.
The livers and adipose tissues taken from inhibitor-administered rats and non-administered rats were homogenized in a buffer (0.32 M sucrose, 0.01 M Tris-Cl pH 7.4) and centrifuged at 3,000×g for 10 min. Again, the supernatant was centrifuged at 10,000×g for 15 min. A pure cytosolic fraction was obtained as the supernatant. The enzyme activity of IDPc was determined by measuring the change in the production amount of NADPH in a buffer (50 mM MOPS, pH 7.2, 35.5 mM triethanolamine, pH 7.2, 2 mM NADP^+, 2 mM MgCl2, 5 mM isocitrate, and rotenone 1 μg/ml) maintained at 25° C. Using a spectrophotometer, absorbance at 340 nm was measured for 2 min to quantify the amount of NADPH produced by the IDPc contained in the cytoplasmic protein, thereby determining the enzyme activity of IDPc. For the quantification of the enzyme, the amount which produced 1 μM of NADPH in 1 min was defined as 1 unit. Protein quantification was performed according to the Bradford assay.
In order to measure the blood triglyceride levels and total cholesterol, assay kits manufactured by Asan Pharmaceutics. Co. Ltd. were used. After being treated with an anti-coagulant, blood taken from the inhibitor-administered rats and non-administered rats was centrifuged to obtain sera. 10 μl of each of the sera was mixed with 1.5 ml of a triglyceride-assay kit [a solution of lipoproteinase 10800 U, glycerol kinase 5.4 U, peroxidase 135000 U, and L-α-glycerophosphate oxidase 160 U in 72 ml of N,N-bis(2-hydroxyethyl)-2-aminomethanesulfonic acid buffer] or 1.5 ml of a cholesterol enzyme-assay kit (a mixture of an enzyme solution (cholesterol esterase 20.5 KU/l, cholesterol oxidase 10.7 KU/l, and sodium hydroxide 1.81 g/l) and a buffer (potassium monophosphate 13.6 g/l, phenol 1.88 g/l) in the proportions of 1:1) and incubated at 37° C. for 5 min for reaction. In a microplate reader, a measurement was done by reading absorbance at 500 nm for cholesterol and at 540 nm for triglyceride, so as to quantify blood levels of triglyceride and total cholesterol. In connection to the quantification of triglyceride and cholesterol, there was utilized a standard curve which was obtained by applying the above procedure to various known concentrations of a standard solution.
A predetermined amount of the liver was taken from both the inhibitor-administered mice and non-administered mice and homogenized in 1 ml of CIAA (chloroform:isoamyl alcohol=2:1 v/v). 100 μl of the homogenate was dissolved in 200 μl of pure ethyl alcohol and mixed with 500 μl of each of the assay kits for triglyceride and cholesterol, manufactured by Asan Pharmaceutics, Co. Ltd., containing 0.5% Triton X-100 and 3 mM sodium cholate, followed by incubation at 37° C. for 10 min. After being added with 800 μl of water, each sample was measured for liver triglyceride and total cholesterol levels with the aid of a microplate reader in the same manner as in above. Likewise, the above procedure was applied to various known concentrations of a standard solution to acquire a standard curve which was used to quantify triglyceride and cholesterol levels in the liver.

Experiment [1] relates to NIH3T3 L1 cells into which only pLNCX vector was introduced. The experiment in a line: Differentiation of adipocytes and oil deposition according to concentration of NADPH (Oil-Red-O). The format is cell-based, mouse. As for the experimental part: To examine the influence of IDPc on the synthesis of fatty acids, the transfectant cell lines were cultured in 10% FBS-supplemented DMEM containing insulin 5 μg/ml, 0.5 mM 3-isobutyl-1-methylxanthine (IBMX, Sigma), 1 μM dexamethasone (DEX), and penicillin-streptomycin (Gibco BRL), each 50,000 units, for two days to increase the counts of the cells to a density of approximately 3×10^4 cells/cm^2. Thereafter, the cells were further cultured for 12 days in DMEM free of IBMX and DEX while the medium was refreshed every other day. Cell culturing was carried out in a CO2 incubator at 37° C. under a wet, 5% CO2 atmosphere.
After culturing, the cells were treated with Oil-Red-O, which specifically dyes oil, to observe oil deposits formed in adipocytes. In this connection, the medium was depleted, after which 10 ml of a cacodylate buffer (90 mM cacodylate, pH 7.2, 2% formaldehyde, 2.5% glutaraldehyde, 0.025% CaCl2, 5% sucrose) was added to the cells, which was then allowed to stand at 4° C. for 1 hour. After removal of the buffer, 5 ml of Oil-Red-O in 40% isopropanol was added to the cells and slowly mixed over 1 hour, followed by washing with 40% isopropanol.
The effect of NADPH, a metabolic product of IDPc, on the deposition of cellular oils was quantitatively measured with Oil-Red-O, a dye specific for lipids. […]

Chain of isocitrate dehydrogenase (O88844 whole entry): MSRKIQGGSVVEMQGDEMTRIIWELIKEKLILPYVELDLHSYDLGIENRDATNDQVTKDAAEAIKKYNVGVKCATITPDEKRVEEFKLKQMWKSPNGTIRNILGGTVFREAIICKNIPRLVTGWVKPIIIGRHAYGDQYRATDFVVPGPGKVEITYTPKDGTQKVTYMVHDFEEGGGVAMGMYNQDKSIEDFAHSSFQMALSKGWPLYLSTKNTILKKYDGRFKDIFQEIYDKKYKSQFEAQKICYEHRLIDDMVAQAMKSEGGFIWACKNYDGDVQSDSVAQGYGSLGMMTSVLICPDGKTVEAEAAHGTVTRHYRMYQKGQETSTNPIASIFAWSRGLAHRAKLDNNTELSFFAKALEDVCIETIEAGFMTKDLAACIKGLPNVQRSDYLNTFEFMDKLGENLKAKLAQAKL

Consider `NC(=O)c1cccnc1` [nicotine amide], for which the “inhibitory activity against isocitrate dehydrogenase” value (from here on “inhibitory activity”) at isocitrate dehydrogenase is “No inhibitory activity”.
With `O=C(O)C(=O)C(C(=O)O)C(O)C(=O)O` (stereo not shown) [oxalomalic acid], the “inhibitory activity” value against isocitrate dehydrogenase is “strong inhibitory activity; also recorded: definite inhibitory activity”. Moreover, the “cellular oil deposits dyed with Oil-Red-O” value in the experiment with 3T3-L1 cells was “reducing cellular oil deposits”.
With `O=C(O)c1cccnc1` [nicotinic acid], the “inhibitory activity” value against isocitrate dehydrogenase was “No inhibitory activity”.
Take `CC(O)(C(=O)O)C(CC(=O)O)C(=O)O` (stereo not shown) [methyl isocitric acid]: at isocitrate dehydrogenase, the “inhibitory activity” value is on record as “strong inhibitory activity; also recorded: definite inhibitory activity”. In the experiment with rats, the “arteriosclerosis index, lower” value was 10. Moreover, the “body weight, inhibitor-administered vs non-administered rats” value in the experiment on rats (10-weeks old) is listed as “No significant difference”. In addition, in the experiment with rats (FIG. 10a), the “weight of epididymal fat pad, lower compared to non-administered rats” value is recorded as “about 12%” and the “weight of the liver, inhibitor-administered vs normal rats” value is recorded as “no difference”. Moreover, in the experiment on rats (FIG. 10b), the “blood level of total cholesterol, lower compared to non-administered rats” value turned out to be 11% and the “blood level of triglyceride, lower compared to non-administered rats” value was determined as 20%. Further, in the experiment on rats (blood, FIG. 10c), the “high-density lipoproteins (HDL) level, higher compared to non-administered rats” value was 11%. Further, the “cellular oil deposits dyed with Oil-Red-O” value with 3T3-L1 cells is given as “reducing cellular oil deposits”.
Consider `NC(=O)C1=CN([C@@H]2O[C@H](COP(=O)(O)OP(=O)(O)OC[C@H]3O[C@@H](n4cnc5c(N)ncnc54)[C@H](OP(=O)(O)O)[C@@H]3O)[C@@H](O)[C@H]2O)C=CC1` [NADPH], for which the “oil deposits formed within cells (Oil-Red-O)” value in experiment [1] (NADPH added at 0 μM, 25 μM and 50 μM to the media during differentiation into adipocytes) is recorded as “accumulated greater amounts of oils; also recorded: larger intracellular lipid deposits”. Besides, the differentiation of adipocytes entry in experiment [1] (differentiated in the presence of NADPH, increasing concentration) is “direct positive influence on the differentiation of adipocytes; also recorded: higher differentiation rates”.
Consider `CC(NC(C)(C)C)C(=O)c1cccc(Cl)c1` (stereo not shown) [bupropion], for which the “inhibitory activity” value against isocitrate dehydrogenase is “only a little inhibitory activity; also recorded: a little inhibitory effect”.
